In ChEMBL document CHEMBL4725363 (J Med Chem, 2020):
The source made the active and inactive calls. The rule behind the calls is not given here.

How the values were obtained:
[1] = MRT (0 to t) in Sprague-Dawley rat at 2.5 mg/kg, iv after 24 hrs by LC-MS/MS analysis; assay type: ADME, organism-based; details: in vivo
[2] = Cmax in Sprague-Dawley rat at 5 mg/kg, po after 24 hrs by LC-MS/MS analysis; assay type: ADME, organism-based; design: route oral, dose 5 mg/kg, time 24 hrs; details: in vivo
[3] = AUC (0 to infinity) in Sprague-Dawley rat at 5 mg/kg, po after 24 hrs by LC-MS/MS analysis; assay type: ADME, organism-based; design: route oral, time 24 hrs, dose 5 mg/kg; details: in vivo
[4] = test system: Rattus norvegicus; assay: Suppression of hypertension pressure in Wistar rat model of pulmonary hypertension at 20 mg/kg/day, po for 3 weeks; assay type: functional, organism-based
[5] = target: T1, Cytochrome P450 1A2 (Homo sapiens, UniProt P05177); assay: Inhibition of CYP1A2 (unknown origin); assay type: ADME
T1 sequence (P05177 whole entry): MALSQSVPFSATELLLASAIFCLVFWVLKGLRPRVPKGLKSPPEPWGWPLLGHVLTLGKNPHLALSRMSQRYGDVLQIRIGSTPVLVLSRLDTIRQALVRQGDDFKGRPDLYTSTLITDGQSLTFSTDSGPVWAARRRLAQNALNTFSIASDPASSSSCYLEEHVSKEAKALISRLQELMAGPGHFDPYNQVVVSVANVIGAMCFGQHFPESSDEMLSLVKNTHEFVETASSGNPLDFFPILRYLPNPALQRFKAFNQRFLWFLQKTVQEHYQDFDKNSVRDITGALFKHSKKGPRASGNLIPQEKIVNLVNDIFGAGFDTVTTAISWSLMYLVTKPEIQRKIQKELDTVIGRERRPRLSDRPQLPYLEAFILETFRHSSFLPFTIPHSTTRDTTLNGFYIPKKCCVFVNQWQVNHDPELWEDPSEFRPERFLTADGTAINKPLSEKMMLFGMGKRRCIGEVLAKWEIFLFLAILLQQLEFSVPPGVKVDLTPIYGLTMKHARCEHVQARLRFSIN

[6] = target: Cytochrome P450 3A4 (Homo sapiens, UniProt P08684); assay: Inhibition of CYP3A4 (unknown origin); assay type: ADME
Cytochrome P450 3A4, sequence (P08684 whole entry): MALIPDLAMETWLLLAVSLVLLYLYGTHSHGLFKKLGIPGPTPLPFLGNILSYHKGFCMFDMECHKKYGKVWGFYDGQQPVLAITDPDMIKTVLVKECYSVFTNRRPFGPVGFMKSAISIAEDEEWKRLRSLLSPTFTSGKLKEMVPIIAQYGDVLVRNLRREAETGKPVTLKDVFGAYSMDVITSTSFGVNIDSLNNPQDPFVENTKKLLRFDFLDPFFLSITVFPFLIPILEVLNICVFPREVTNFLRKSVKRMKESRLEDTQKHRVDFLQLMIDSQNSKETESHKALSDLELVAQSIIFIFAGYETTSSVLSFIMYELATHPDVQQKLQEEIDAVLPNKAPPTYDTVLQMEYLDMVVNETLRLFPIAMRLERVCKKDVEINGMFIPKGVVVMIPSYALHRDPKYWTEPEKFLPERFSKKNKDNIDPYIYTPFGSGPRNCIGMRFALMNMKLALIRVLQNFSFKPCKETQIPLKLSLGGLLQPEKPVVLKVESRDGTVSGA

[7] = target: Voltage-gated inwardly rectifying potassium channel KCNH2 (Homo sapiens, UniProt Q12809); assay: Inhibition of human ERG expressed in CHO cells by patch-clamp electrophysiology method; assay type: cell-based
Voltage-gated inwardly rectifying potassium channel KCNH2, sequence (Q12809 whole entry): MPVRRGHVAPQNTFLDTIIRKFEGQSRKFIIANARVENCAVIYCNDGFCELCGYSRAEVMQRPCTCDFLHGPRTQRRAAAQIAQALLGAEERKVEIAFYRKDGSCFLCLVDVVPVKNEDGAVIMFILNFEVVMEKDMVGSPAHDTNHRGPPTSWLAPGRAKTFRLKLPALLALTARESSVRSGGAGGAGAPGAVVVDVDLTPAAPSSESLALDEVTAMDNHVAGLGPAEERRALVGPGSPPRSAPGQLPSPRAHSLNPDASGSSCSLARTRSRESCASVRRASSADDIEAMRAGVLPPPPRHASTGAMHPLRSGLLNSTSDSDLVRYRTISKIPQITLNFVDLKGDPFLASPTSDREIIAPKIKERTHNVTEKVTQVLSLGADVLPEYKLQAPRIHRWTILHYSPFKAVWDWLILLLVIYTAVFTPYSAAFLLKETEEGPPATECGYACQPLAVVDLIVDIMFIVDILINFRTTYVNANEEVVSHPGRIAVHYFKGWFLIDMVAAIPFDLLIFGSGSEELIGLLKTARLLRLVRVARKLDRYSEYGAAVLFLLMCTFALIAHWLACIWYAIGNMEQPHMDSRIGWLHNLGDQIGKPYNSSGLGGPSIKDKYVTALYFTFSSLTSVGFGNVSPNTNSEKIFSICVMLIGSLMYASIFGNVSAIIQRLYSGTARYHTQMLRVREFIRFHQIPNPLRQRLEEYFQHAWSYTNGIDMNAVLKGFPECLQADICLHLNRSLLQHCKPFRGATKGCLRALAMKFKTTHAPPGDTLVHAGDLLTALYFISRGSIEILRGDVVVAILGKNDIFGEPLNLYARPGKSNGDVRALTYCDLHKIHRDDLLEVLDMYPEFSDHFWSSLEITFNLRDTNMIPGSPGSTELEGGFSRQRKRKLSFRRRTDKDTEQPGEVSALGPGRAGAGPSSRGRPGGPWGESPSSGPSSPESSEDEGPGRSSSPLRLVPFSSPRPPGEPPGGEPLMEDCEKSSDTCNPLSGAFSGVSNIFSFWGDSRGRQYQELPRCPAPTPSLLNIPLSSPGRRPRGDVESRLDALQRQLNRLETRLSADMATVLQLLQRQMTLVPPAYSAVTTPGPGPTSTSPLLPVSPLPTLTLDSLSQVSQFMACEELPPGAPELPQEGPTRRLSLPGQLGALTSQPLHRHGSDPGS

For `COc1ccc2c3c([nH]c2c1)[C@@H]1N(CC3)C(=O)c2c(OC)cccc2N1C`, the MRT last at 24 h [1] was 8.4 min, the Cmax [2] was 54.4 ng/mL and the AUC(0-inf) [3] was 155 ng·h/mL. For the same compound, the Activity [4] was “Active”, the IC50 [5] was 10 µM and the IC50 [6] was 10 µM. It also gave an IC50 [7] of 20 µM.
